Source: PMC10458530, “Synthesis and Evaluation of ePSMA-DM1: A New Theranostic Small-Molecule Drug Conjugate (T-SMDC) for Prostate Cancer” (Pharmaceuticals, 2023)
Values joined by “and” are separate entries in the source; they are usually repeats but may differ in a detail not shown here. Identical values can stand only once. “Also recorded” adds a separate entry of the source. Like-named read-outs stand apart in the source and are kept apart here. Non-standard residues stand in square brackets, D forms with d. Residues, ends and D or L forms follow the SMILES beside them. *: point of attachment. Propanoyl(3-SS-DM1) = COc1cc2cc(c1Cl)N(C)C(=O)C[C@H](OC(=O)[C@H](C)N(C)C(=O)CCSSCCC(=O)*)[C@]1(C)O[C@H]1[C@H](C)[C@@H]1C[C@@](O)(NC(=O)O1)[C@H](OC)/C=C/C=C(\C)C2; DOTA = O=C(O)CN1CCN(CC(=O)O)CCN(CC(=O)*)CCN(CC(=O)O)CC1; EuK = O=C(O)CC[C@H](NC(=O)N[C@@H](CCCCN*)C(=O)O)C(=O)O; Sta = CC(C)C[C@H](N)[C@@H](O)CC(=O)O; Ahx = NCCCCCC(=O)O

Tests used:
[1] = test system: PSMA-positive LS174T cells; experiment: Resazurin-based cytotoxicity assay; format: cell-based, human; conditions: for cell viability: 48 h post treatment
Description: LS174T human colon carcinoma cells transfected with human PSMA were cultured in RPMI-1640 media supplemented with 2 mM glutamine, 10% fetal bovine serum (FBS) and 0.3 mg/mL G418 (Geneticin, Sigma Aldrich, Burlington, MA, USA). The cells were provided by Dr. Sandra Heskamp (Radboud UMC, Nijmegen, The Netherlands).
A resazurin in vitro toxicology assay kit was used to determine cytotoxicity. Briefly, 5 × 10^3 LS174T cells were seeded in a volume of 100 µL per well in 96-well plates and incubated at 37 °C with 5% CO2 for 24 h before the experiment. After incubation, the media were removed, and the wells were washed once with PBS. Then, ePSMA-DM1 at the concentrations of 1, 10, 100 and 1000 nM and the positive control DM1 (1000 nM) were prepared in culture media (RPMI-1640 media supplemented with 2 mM glutamine, 10% fetal bovine serum (FBS) and 0.3 mg/mL G418). Media and PSMA-617 (100 nM) were used as negative controls. Cells were incubated with 100 µL of the tested compounds for 48 and 72 h at 37 °C with 5% CO2. After incubation, media were removed, and each well was washed once with PBS. Next, 100 µL of 10% resazurin solution (TOX8, Sigma-Aldrich) in culture media was added to each well and incubated for 2.5 h. Fluorescence was measured using the HIDEX Sense Optical System with excitation at 544 nm and emission at 590 nm. Data were analyzed using GraphPad Prism 9.0 and expressed as cell viability (%). The experiments were performed in triplicate.

[2] = biological target: T1, Recombinant human PSMA (Homo sapiens, UniProt Q04609); experiment: NAALADase enzymatic assay (binding to PSMA); format: biochemical
T1 construct: purchased R & D systems, Abingdon, UK
Description: Recombinant human PSMA (rhPSMA; R & D systems, Abingdon, UK) was diluted in assay buffer (50 mM HEPES, 0.1 M NaCl, pH 7.5) to 0.4 μg/mL. The substrate Ac-Asp-Glu (40 μM) was mixed with ePSMA-DM1 or with a reference (PSMA-617) at concentrations ranging from 10^−6 to 10^−13 M in a final volume of 12.5 μL assay buffer. The mixtures were combined with 12.5 μL of the rhPSMA solution and incubated for 1 h at 37 °C in 384-well black polystyrene microplates (ThermoFisher, Bleiswijk, The Netherlands). A volume of 25 μL of a working solution of the Amplex Red glutamic acid kit (ThermoFisher, Bleiswijk, The Netherlands) was added and incubated at 37 °C for 30 min. Release of glutamate was measured by fluorescence with a HIDEX Sense Optical System (Goedereede, The Netherlands) set at 535 nm (excitation) and 590 nm (emission). Data were normalized, and one-site total binding regression was applied for analysis with GraphPad Prism v9.0 (GraphPad Software, San Diego, CA, USA).

[3] = test system: BALB/c nu/nu LS174T xenografted mice; experiment: Ex vivo biodistribution; format: in vivo, mouse; conditions: estimated, one-phase decay
Description: Animal experiments were performed using male BALB/c nude mice (8–10 weeks old; Janvier Labs, Le Genest-Saint-Isle, France). Animals were housed in individually ventilated cages (Blue line IVC, 2 mice per cage) under sterile standard conditions with cage enrichments present and free access to animal chow (Sniff GmbH, Soest, Germany) and water. They were acclimated for 1 week prior to experiments. Mice were subcutaneously inoculated with 4.0 × 10^6 LS174T cells in the right flank diluted in 100 μL of cell suspension […]. The average tumor volume size per group (n = 4) was of 206.2 ± 7.9 mm^3 (average weight of 105.8 ± 7.3 mg) after non-blinded grouping to enable homogenous tumor size distribution. [^111In]In-ePSMA-DM1 was injected intravenously via the tail vein. All experiments were approved by the institutional Animal Welfare Committee and were conducted in accordance to the guidelines of the Revised Dutch Act on Animal Experimentation (WOD).
Mice were intravenously injected with ~1 nmol of [^111In]In-ePSMA-DM1 (5 MBq). Mice (n = 4/timepoint) were euthanized by cervical dislocation at 1, 4 and 24 h p.i. A block group (co-injection of 50 nmol of PSMA-617) was included, and mice were euthanized at 4 h p.i. Organs (blood, heart, lungs, liver, spleen, stomach, intestines, pancreas, kidneys, muscle, skin, bone and prostate) and the tumors were collected in pre-weighed tubes, weighed after organ collection, and measured in the γ-counter, for which the calibration factor was determined by measuring different known activities of In-111. Activity was corrected for decay, and uptake was expressed as percentage of the injected dose per gram of the tissue (% ID/g). The biological half-lives in tissues of [^111In]In-ePSMA-DM1 were determined using a one-phase decay algorithm in GraphPad Prism 9.0 (GraphPad Software, Boston, MA, USA).

[4] = Stability in mouse serum; format: in vitro ADME; conditions: 24 h post incubation, 37 °C
Description: [^111In]In-ePSMA-DM1 (~30 MBq, 70 µL) was mixed with 330 μL of mouse serum and incubated at 37 °C for up to 24 h. To a separate vial containing 50 µL of acetonitrile, 50 μL of the mouse serum solution was added after 1, 4 and 24 h of incubation. The sample was centrifuged at 5000× g for 20 min. The supernatant was analyzed by radio-HPLC.

[5] = Stability in PBS; format: physicochemical; conditions: 24 h post incubation, 37 °C
Description: [^111In]In-ePSMA-DM1 (~10 MBq, 20 µL) was mixed with 80 μL of PBS (0.01 M, pH 7.4) and incubated at 37 °C for up to 24 h. A sample of the PBS solution was loaded directly onto the radio-HPLC at 1, 4 and 24 h post incubation.

[6] = Glutathione (GSH) stability / drug release assay; format: in vitro ADME
Description: The protocol was adapted from the literature. A 5 mM solution of L-glutathione was prepared in PBS, and 990 μL aliquots were dispensed into Eppendorf tubes. To each tube, 10 μL of a solution of ePSMA-DM1 (1 mM) in MeOH was added, and the mixtures were incubated at 37 °C. Then 50 μL aliquots of the solution were taken at 10 min, 30 min, 1, 2, 4 and 6 h and analyzed by LC-MS. The experiments were performed in triplicate.

T1 sequence (Q04609 whole entry): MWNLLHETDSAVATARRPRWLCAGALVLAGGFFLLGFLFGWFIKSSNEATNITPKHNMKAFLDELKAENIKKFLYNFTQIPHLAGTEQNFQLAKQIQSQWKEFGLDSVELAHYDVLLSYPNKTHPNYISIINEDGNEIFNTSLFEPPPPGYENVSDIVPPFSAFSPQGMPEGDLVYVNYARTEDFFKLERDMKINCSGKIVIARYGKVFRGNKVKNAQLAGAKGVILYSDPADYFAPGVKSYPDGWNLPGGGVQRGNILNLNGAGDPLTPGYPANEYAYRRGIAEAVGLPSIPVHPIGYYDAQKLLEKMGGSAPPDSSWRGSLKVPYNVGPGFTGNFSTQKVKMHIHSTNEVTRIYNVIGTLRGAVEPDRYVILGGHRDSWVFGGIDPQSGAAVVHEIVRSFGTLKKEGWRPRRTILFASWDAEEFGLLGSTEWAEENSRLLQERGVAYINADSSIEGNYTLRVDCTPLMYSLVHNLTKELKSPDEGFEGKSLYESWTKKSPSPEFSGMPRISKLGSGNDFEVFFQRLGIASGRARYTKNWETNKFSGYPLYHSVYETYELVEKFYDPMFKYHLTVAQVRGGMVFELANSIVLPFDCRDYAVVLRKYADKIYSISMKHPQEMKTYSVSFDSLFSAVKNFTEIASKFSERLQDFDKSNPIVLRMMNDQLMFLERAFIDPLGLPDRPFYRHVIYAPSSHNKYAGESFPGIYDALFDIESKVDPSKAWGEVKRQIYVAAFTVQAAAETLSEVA

Which cell viability ([1]; 1000 nM) does the source give for `COc1cc2cc(c1Cl)N(C)C(=O)C[C@H](OC(=O)[C@H](C)N(C)C(=O)CCS)[C@]1(C)O[C@H]1[C@H](C)[C@@H]1C[C@@](O)(NC(=O)O1)[C@H](OC)/C=C/C=C(\C)C2` [DM1, Mertansine, reference compound] here?
The cell viability was ~ 50%.

What about the “decrease in cell viability” value ([1]; 1000 nM, 72 h) of the same molecule?
The value was “more than 85%”.

With `O=C(O)CC[C@H](NC(=O)N[C@@H](CCCCNC(=O)[C@H](Cc1ccc2ccccc2c1)NC(=O)[C@H]1CC[C@H](CNC(=O)CN2CCN(CC(=O)O)CCN(CC(=O)O)CCN(CC(=O)O)CC2)CC1)C(=O)O)C(=O)O` [PSMA-617, reference compound] as the molecule, how does the “decrease in viability” value ([1]; 100 nM, negative control) read?
Its value is “not observed”.

And the IC50 ([2]; NAALADase assay, rhPSMA, substrate Ac-Asp-Glu, read-out: IC50 (binding affinity to PSMA))?
Its IC50 is 2.19 ± 0.78 nM.

Which results are given for `COc1cc2cc(c1Cl)N(C)C(=O)C[C@H](OC(=O)[C@H](C)N(C)C(=O)CCSSCCC(=O)NCCCC[C@H](NC(=O)CN1CCN(CC(=O)O)CCN(CC(=O)O)CCN(CC(=O)O)CC1)C(=O)N[C@@H](CC(=O)O)C(=O)N[C@@H](Cc1ccccc1)C(=O)N[C@@H](CC(C)C)[C@@H](O)CC(=O)NCCCCCC(=O)NCCCC[C@H](NC(=O)N[C@@H](CCC(=O)O)C(=O)O)C(=O)O)[C@]1(C)O[C@H]1[C@H](C)[C@@H]1C[C@@](O)(NC(=O)O1)[C@H](OC)/C=C/C=C(\C)C2` [[^111In]In-ePSMA-DM1] [metal not drawn] ({DOTA}-K(Propanoyl(3-SS-DM1))DF[Sta][Ahx]-EuK)?
half-life in the blood [3]: 1.5 h; half-life in the tumor [3]: 2.1 h; Stability in Mouse Serum (%) [4]: 82.9%; Stability in PBS (%) [5]: 90.9%

What does the source list for `COc1cc2cc(c1Cl)N(C)C(=O)C[C@H](OC(=O)[C@H](C)N(C)C(=O)CCSSCCC(=O)NCCCC[C@H](NC(=O)CN1CCN(CC(=O)O)CCN(CC(=O)O)CCN(CC(=O)O)CC1)C(=O)N[C@@H](CC(=O)O)C(=O)N[C@@H](Cc1ccccc1)C(=O)N[C@@H](CC(C)C)[C@@H](O)CC(=O)NCCCCCC(=O)NCCCC[C@H](NC(=O)N[C@@H](CCC(=O)O)C(=O)O)C(=O)O)[C@]1(C)O[C@H]1[C@H](C)[C@@H]1C[C@@](O)(NC(=O)O1)[C@H](OC)/C=C/C=C(\C)C2` [[^177Lu]Lu-ePSMA-DM1] [metal not drawn] ({DOTA}-K(Propanoyl(3-SS-DM1))DF[Sta][Ahx]-EuK)?
Stability in Mouse Serum (%) [4]: 91.2%; Stability in PBS (%) [5]: 81.4%

Which results are given for `COc1cc2cc(c1Cl)N(C)C(=O)C[C@H](OC(=O)[C@H](C)N(C)C(=O)CCSSCCC(=O)NCCCC[C@H](NC(=O)CN1CCN(CC(=O)O)CCN(CC(=O)O)CCN(CC(=O)O)CC1)C(=O)N[C@@H](CC(=O)O)C(=O)N[C@@H](Cc1ccccc1)C(=O)N[C@@H](CC(C)C)[C@@H](O)CC(=O)NCCCCCC(=O)NCCCC[C@H](NC(=O)N[C@@H](CCC(=O)O)C(=O)O)C(=O)O)[C@]1(C)O[C@H]1[C@H](C)[C@@H]1C[C@@](O)(NC(=O)O1)[C@H](OC)/C=C/C=C(\C)C2` [ePSMA-DM1] ({DOTA}-K(Propanoyl(3-SS-DM1))DF[Sta][Ahx]-EuK)?
drug released ([6]; after 2 h, 5 mM GSH): ~ 50% and 50%; half-life at 10 µM ([6]; buffer, 5 mM GSH in PBS, 37 °C, read-out: half-life in a reducing environment (converted)): 120 min; cytotoxic effect ([1]; 1 nM, 48 and 72 h): not sufficient to elicit cell death; also recorded: not observed; cell viability ([1]; 100 nM): ~ 50%; cell viability ([1]; 1000 nM): ~ 50%; IC50 [2]: 45.3 ± 1.84 nM
